Tests used:
[1] = molecular target: T1, Histone deacetylase 1 (Homo sapiens, UniProt Q13547); assay: Inhibition of human recombinant HDAC1 pre-incubated for 30 mins before Ac-Leu- Gly-Lys(Ac)-AMC substrate addition and measured after 90 mins by fluorescence based assay
[2] = molecular target: Histone deacetylase 2 (Homo sapiens, UniProt Q92769); assay: Inhibition of human recombinant HDAC2 pre-incubated for 30 mins before Ac-Leu- Gly-Lys(Ac)-AMC substrate addition and measured after 90 mins by fluorescence based assay
Sequence of Histone deacetylase 2 (Q92769 whole entry): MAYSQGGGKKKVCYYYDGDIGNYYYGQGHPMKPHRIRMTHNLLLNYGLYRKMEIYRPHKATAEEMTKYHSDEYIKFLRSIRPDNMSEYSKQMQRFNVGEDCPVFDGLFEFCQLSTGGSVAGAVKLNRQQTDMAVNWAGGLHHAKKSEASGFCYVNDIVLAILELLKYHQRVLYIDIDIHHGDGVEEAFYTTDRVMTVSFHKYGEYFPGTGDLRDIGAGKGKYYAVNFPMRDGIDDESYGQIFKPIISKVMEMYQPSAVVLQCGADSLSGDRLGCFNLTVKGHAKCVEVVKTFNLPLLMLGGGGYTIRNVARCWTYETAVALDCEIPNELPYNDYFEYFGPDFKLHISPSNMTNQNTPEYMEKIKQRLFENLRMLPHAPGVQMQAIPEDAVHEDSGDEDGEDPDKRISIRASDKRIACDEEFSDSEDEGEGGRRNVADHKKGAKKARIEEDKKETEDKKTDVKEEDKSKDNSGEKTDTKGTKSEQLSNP

[3] = molecular target: T2, Histone deacetylase 8 (Homo sapiens, UniProt Q9BY41); assay: Inhibition of human recombinant HDAC8 pre-incubated for 30 mins before Ac-Leu- Gly-Lys(Ac)-AMC substrate addition and measured after 90 mins by fluorescence based assay
T2 sequence (Q9BY41 whole entry): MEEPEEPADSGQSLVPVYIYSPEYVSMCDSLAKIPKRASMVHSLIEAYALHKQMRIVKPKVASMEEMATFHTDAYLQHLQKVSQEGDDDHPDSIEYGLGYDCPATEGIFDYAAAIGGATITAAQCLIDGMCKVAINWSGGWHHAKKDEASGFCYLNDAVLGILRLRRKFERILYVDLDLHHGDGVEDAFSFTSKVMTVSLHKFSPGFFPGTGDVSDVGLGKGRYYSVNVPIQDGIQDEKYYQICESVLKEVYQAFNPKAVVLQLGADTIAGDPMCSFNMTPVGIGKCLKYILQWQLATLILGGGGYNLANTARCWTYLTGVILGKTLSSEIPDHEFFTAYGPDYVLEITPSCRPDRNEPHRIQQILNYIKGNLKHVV

[4] = molecular target: Histone deacetylase 3 (Homo sapiens, UniProt O15379); assay: Inhibition of human recombinant HDAC3 pre-incubated for 30 mins before Ac-Leu- Gly-Lys(Ac)-AMC substrate addition and measured after 90 mins by fluorescence based assay
Sequence of Histone deacetylase 3 (O15379 whole entry): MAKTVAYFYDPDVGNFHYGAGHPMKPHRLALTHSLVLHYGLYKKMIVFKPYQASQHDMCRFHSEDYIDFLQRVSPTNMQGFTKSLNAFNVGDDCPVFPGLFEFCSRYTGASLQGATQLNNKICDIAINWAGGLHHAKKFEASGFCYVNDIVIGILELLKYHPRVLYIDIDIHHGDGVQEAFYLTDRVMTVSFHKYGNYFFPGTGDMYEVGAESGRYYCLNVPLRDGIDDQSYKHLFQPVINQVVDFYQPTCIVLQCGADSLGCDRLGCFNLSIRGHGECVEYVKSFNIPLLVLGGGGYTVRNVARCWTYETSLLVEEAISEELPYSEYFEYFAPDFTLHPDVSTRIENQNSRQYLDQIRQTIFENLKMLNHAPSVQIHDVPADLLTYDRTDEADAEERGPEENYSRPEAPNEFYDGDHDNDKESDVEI

[5] = test system: HeLa; assay: Cytotoxicity against human HeLa cells assessed as reduction in cell viability incubated for 72 hrs by MTT assay
[6] = test system: MDA-MB-231; assay: Cytotoxicity against human MDA-MB-231 cells assessed as increase in intracellular caspase 3/7 release incubated for 72 hrs by Caspase-Glo 3/7 assay; settings: MDA-MB-231, 72 h
[7] = test system: MM96L; assay: Cytotoxicity against human MM96L cells assessed as increase in intracellular caspase 3/7 release incubated for 72 hrs by Caspase-Glo 3/7 assay
[8] = test system: HT-29; assay: Cytotoxicity against human HT-29 cells assessed as increase in intracellular caspase 3/7 release incubated for 72 hrs by Caspase-Glo 3/7 assay; settings: HT-29, 72 h
[9] = test system: A549; assay: Cytotoxicity against human A549 cells assessed as increase in intracellular caspase 3/7 release incubated for 72 hrs by Caspase-Glo 3/7 assay; settings: A549, 72 h
[10] = test system: MM96L; assay: Cytotoxicity against human MM96L cells assessed as reduction in cell viability incubated for 72 hrs by MTT assay
[11] = test system: MDA-MB-231; assay: Cytotoxicity against human MDA-MB-231 cells assessed as reduction in cell viability incubated for 72 hrs by MTT assay; settings: MDA-MB-231, 72 h
[12] = test system: A549; assay: Cytotoxicity against human A549 cells assessed as reduction in cell viability incubated for 72 hrs by MTT assay; settings: A549, 72 h
[13] = test system: HeLa; assay: Cytotoxicity against human HeLa cells assessed as increase in intracellular caspase 3/7 release incubated for 72 hrs by Caspase-Glo 3/7 assay
[14] = test system: HT-29; assay: Cytotoxicity against human HT-29 cells assessed as reduction in cell viability incubated for 72 hrs by MTT assay; settings: HT-29, 72 h
[15] = molecular target: T1, Histone deacetylase 1; assay: Inhibition of HDAC1 in human MM96L cells assessed as activation of histone H4 acetylation at Lys5, Lys8, Lys12 and Lys16 residues by Western blot analysis; type: cell-based

T1 sequence (Q13547 whole entry): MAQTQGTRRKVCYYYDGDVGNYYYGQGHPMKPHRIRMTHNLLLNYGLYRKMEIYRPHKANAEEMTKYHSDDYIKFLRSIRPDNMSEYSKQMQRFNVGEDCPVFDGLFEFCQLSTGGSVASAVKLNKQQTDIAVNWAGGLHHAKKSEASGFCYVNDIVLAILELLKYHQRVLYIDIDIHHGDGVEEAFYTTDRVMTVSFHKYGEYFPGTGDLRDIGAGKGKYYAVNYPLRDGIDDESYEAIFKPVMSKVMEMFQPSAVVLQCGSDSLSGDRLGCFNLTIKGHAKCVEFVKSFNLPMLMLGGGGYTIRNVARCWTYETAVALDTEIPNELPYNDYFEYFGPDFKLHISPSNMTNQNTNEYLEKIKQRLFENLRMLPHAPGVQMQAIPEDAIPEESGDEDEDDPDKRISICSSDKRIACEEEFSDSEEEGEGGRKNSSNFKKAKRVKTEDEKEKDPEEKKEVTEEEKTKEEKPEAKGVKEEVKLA

| SMILES | IC50 [1] | also measured |
| --- | --- | --- |
| O=C(NO)c1ccc(NC(=O)C2(c3ccc([N+](=O)[O-])cc3)CCOCC2)cc1 | 9 nM |  |
| CC(C)C(C(=O)Nc1ccc(C(=O)Nc2ccccc2N)cc1)c1ccccc1 (racemic) | 231 nM |  |
| O=C(NO)c1ccc(NC(=O)C2(c3csc(-c4ccccc4Oc4ccccc4)n3)CCCC2)cc1 | 431 nM |  |
| Cc1[nH]ncc1-c1ccc(C2(C(=O)Nc3ccc(C(=O)NO)cc3)CCCC2)cc1 | 5 nM |  |
| CC(C)C(C(=O)Nc1ccc(C(=O)NO)cn1)c1ccccc1 (stereo not drawn) | 22 nM |  |
| COc1ccc(C2(C(=O)Nc3ccc(C(=O)NO)cc3)CCCCC2)cc1-c1ccccc1NC(C)=O | 9 nM |  |
| Nc1ccc(C2(C(=O)Nc3ccc(C(=O)NO)cc3)CCOCC2)cc1 | 22 nM |  |
| O=C(NO)c1ccc(NC(=O)C2(c3c[nH]c(-c4ccccc4)n3)CCCC2)cc1 | 3 nM | IC50 [2]: 21 nM; IC50 [3]: 41 nM; IC50 [4]: 10 nM |
| O=C(NO)c1ccc(NC(=O)C2(c3ccc4c(c3)OCO4)CCCCC2)cc1 | 42 nM |  |
| O=C(NO)c1ccc(NC(=O)C2(c3ccc(-c4cc[nH]n4)cc3)CCCC2)cc1 | 4 nM |  |
| COc1ccc(C2(C(=O)Nc3ccc(C(=O)NO)cc3)CCCCC2)cc1OC | 29 nM |  |
| O=C(NO)c1ccc(NC(=O)C2(c3ccc(Br)cc3)CCCC2)cc1 | 7 nM |  |
| O=C(NO)c1ccc(NC(=O)C2(c3ccccc3)CCCC2)nc1 | 132 nM |  |
| O=C(NO)c1ccc(NC(=O)C2(c3ccc(Cl)c(Cl)c3)CCOCC2)cc1 | 6 nM |  |
| O=C(NO)c1ccc(NC(=O)C2(c3ccc(-c4cn[nH]c4)cc3)CCOCC2)cc1 | 2 nM |  |
| O=C(NO)c1ccc(NC(=O)C2(c3ccccc3)CCNCC2)cc1 | 12 nM |  |
| O=C(NO)c1ccc(NC(=O)C2(c3ccccc3)CC2)cc1 | 93 nM |  |
| CC(C)C(C(=O)N(C)c1ccc(C(=O)NO)cc1)c1ccccc1 (racemic) | 439 nM |  |
| CC(=O)Nc1ccccc1-c1ccc(C2(C(=O)Nc3ccc(C(=O)NO)cc3)CCCC2)cc1 | 0.94 nM |  |
| COc1ccc(C2(C(=O)Nc3ccc(C(=O)NO)cc3)CCCCC2)cc1-c1cn[nH]c1 | 3 nM |  |

| SMILES | IC50 [1] | also measured |
| --- | --- | --- |
| O=C(NO)c1ccc(NC(=O)C2(c3ccc(-c4ccc(OCc5ccccc5)nc4)cc3)CCCC2)cc1 | 240 nM |  |
| O=C(NO)c1ccc(NC(=O)C2(c3ccc(C(F)(F)F)c(F)c3)CCCC2)cc1 | 227 nM |  |
| O=C(NO)c1ccc(NC(=O)C2(c3ccc(-c4ccccc4)c(F)c3)CCCC2)cc1 | 42 nM |  |
| Nc1cccc(-c2ccc(C3(C(=O)Nc4ccc(C(=O)NO)cc4)CCCC3)cc2)c1 | 4 nM |  |
| O=C(O)c1cccc(-c2ccc(C3(C(=O)Nc4ccc(C(=O)NO)cc4)CCCC3)cc2)c1 | 2 nM | IC50 [5]: > 100000 nM; EC50 [6]: > 100000 nM; IC50 [2]: 13 nM; EC50 [7]: > 100000 nM; EC50 [8]: > 100000 nM; EC50 [9]: > 100000 nM; IC50 [10]: > 100000 nM; IC50 [3]: 118 nM; IC50 [11]: > 100000 nM; IC50 [4]: 7 nM; IC50 [12]: > 100000 nM; EC50 [13]: > 100000 nM; IC50 [14]: > 100000 nM |
| O=C(NO)c1ccc(NC(=O)C2(c3ccc(-c4cn[nH]c4)cc3)CCCC2)cc1 | 3 nM |  |
| O=C(NO)c1ccc(NC(=O)C2(c3ccc(F)cc3)CCCC2)cc1 | 41 nM |  |
| CC(C)C(C(=O)Nc1ccc(C(=O)NO)c(Cl)c1)c1ccccc1 (racemic) | 8680 nM |  |
| O=C(NO)c1ccc(NC(=O)C2(c3csc(-c4cccc(Oc5ccccc5)c4)n3)CCCC2)cc1 | > 10000 nM |  |
| CCC(CC)(C(=O)Nc1ccc(C(=O)NO)cc1)c1ccccc1 | 430 nM |  |
| COc1ccc(C2(C(=O)Nc3ccc(C(=O)NO)cc3)CCCCC2)cc1-c1cccc(N)c1 | 10 nM |  |
| CC(C)(C(=O)Nc1ccc(C(=O)NO)cc1)c1ccccc1 | 218 nM |  |
| Cc1n[nH]c(C)c1-c1ccc(C2(C(=O)Nc3ccc(C(=O)NO)cc3)CCCC2)cc1 | 8 nM |  |
| O=C(NO)c1ccc(NC(=O)C2(c3ccc(Br)cc3)CCOCC2)cc1 | 2 nM | IC50 [2]: 17 nM; IC50 [3]: 59 nM; EC50 [15]: 600 nM; inhibition [15]: Dose-dependent effect; IC50 [4]: 4 nM |
| O=C(NO)c1ccc(NC(=O)C2(c3c[nH]c(-c4ccc([N+](=O)[O-])cc4)n3)CCCC2)cc1 | 6 nM |  |
| O=C(NO)c1ccc(NC(=O)C2(c3ccc4ccccc4c3)CCCC2)cc1 | 11 nM |  |
| CC(C)C(NC(=O)c1ccc(C(=O)NO)cc1)c1ccccc1 (racemic) | 2120 nM |  |
| O=C(NO)c1ccc(NC(=O)C(c2ccccc2)c2ccccc2)cc1 | 250 nM |  |
| O=C(NO)c1ccc(NC(=O)C2(c3ccc(Cl)cc3)CCCC2)cc1 | 12 nM |  |
| COc1cccc(-c2nc(C3(C(=O)Nc4ccc(C(=O)NO)cc4)CCCC3)cs2)c1 | 15 nM |  |

| SMILES | IC50 [1] | also measured |
| --- | --- | --- |
| O=C(NO)c1ccc(NC(=O)C2(c3csc(-c4ccccc4)n3)CCCC2)cc1 | 12 nM |  |
| C/C(=N\O)c1sccc1-c1ccc(C2(C(=O)Nc3ccc(C(=O)NO)cc3)CCCC2)cc1 | 43 nM |  |
| COc1ccc(C2(C(=O)Nc3ccc(C(=O)NO)cc3)CCCCC2)cc1Br | 31 nM |  |
| CC(C)C(C(=O)Nc1ccc(C(=O)NO)cc1Cl)c1ccccc1 (racemic) | 1060 nM |  |
| O=C(NO)c1ccc(NC(=O)C2(c3ccc(Br)cc3)CCCCC2)cc1 | 63 nM |  |
| O=C(NO)c1ccc(NC(=O)C2(c3ccc4ccccc4c3)CCCCC2)cc1 | 43 nM |  |
| O=C(NO)c1ccc(NC(=O)C2(c3ccccc3)CCOCC2)cc1 | 28 nM |  |
| CCCC(CCC)C(=O)Nc1ccc(C(=O)NO)cc1 | 738 nM |  |
| O=C(NO)c1ccc(NC(=O)C2(c3ccccc3)CCCC2)cc1 | 28 nM |  |
| O=C(NO)c1ccc(NC(=O)C2(c3c[nH]c4ccccc34)CCCC2)cc1 | 23 nM |  |
| O=C(NO)c1ccc(NC(=O)C2(c3ccc(-c4cccnc4)cc3)CCCC2)cc1 | 5 nM |  |
| O=C(NO)c1ccc(NC(=O)C2(c3ccc(-c4ccccc4)cc3)CCCC2)cc1 | 16 nM |  |
| O=C(NO)c1ccc(NC(=O)C2(c3ccccc3)CCCCC2)cc1 | 15 nM |  |
| O=C(NO)c1ccc(NC(=O)C2(c3ccc(-c4ccc5[nH]ccc5c4)cc3)CCCC2)cc1 | 8 nM |  |
| O=C(NO)c1ccc(NC(=O)C2(c3c[nH]c(-c4ccc(Br)cc4)n3)CCCC2)cc1 | 10 nM |  |
| O=C(Cc1ccccc1)Nc1ccc(C(=O)NO)cc1 | 75 nM |  |
| CC(=O)Nc1ccc(N)cc1-c1ccc(C2(C(=O)Nc3ccc(C(=O)NO)cc3)CCCCC2)cc1 | 10 nM |  |
| O=C(NO)c1ccc(NC(=O)C2(c3ccc(-c4cn[nH]c4)cc3)CCCCC2)cc1 | 2 nM | IC50 [2]: 10 nM; IC50 [3]: 69 nM; IC50 [4]: 2 nM |
| CC(=O)Nc1cccc(-c2ccc(C3(C(=O)Nc4ccc(C(=O)NO)cc4)CCCC3)cc2)c1 | 5 nM |  |

From ChEMBL document CHEMBL4602725 (J Med Chem, 2020)
